The target in one test is T1, human CRF2a receptor (Homo sapiens, UniProt Q13324).
T1 construct: expressed in transfected cells; host or cells: TeloHEAC cells
T1 sequence (Q13324 1-411): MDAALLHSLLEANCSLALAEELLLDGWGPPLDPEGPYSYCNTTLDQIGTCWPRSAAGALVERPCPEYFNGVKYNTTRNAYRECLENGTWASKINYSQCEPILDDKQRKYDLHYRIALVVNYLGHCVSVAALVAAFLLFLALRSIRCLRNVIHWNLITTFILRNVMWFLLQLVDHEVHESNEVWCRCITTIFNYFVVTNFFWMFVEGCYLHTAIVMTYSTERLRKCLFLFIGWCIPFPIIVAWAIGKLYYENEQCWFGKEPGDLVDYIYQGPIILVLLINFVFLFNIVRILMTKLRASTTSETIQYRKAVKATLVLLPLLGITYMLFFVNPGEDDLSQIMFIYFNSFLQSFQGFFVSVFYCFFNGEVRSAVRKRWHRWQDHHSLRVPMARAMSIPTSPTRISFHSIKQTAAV
Put plainly: Activity at human CRF2a receptor, cAMP functional assay in TeloHEAC cells. The test is classed as cell-based. As to conditions: TeloHEAC cells stably expressing human CRF2a receptor, relative to urocortin 2 (100 nM = 100%). The essentials: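 cAMP accumulation was measured by HTRF 665/620 nm ratio after 30 min at 37° C compound exposure (16 twofold dilutions) of CRF2a-expressing TeloHEAC cells, 10000/well, in HEPES-buffered HBSS plus IBMX. Activity was normalised to urocortin 2 at 100 nM (100%), and EC50 was the concentration giving half-maximal activation.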

Another test has as its target T2, CFR1R receptor (Homo sapiens, UniProt P34998).
T2 construct: host or cells: CHO-K1 (clone 2)
T2 sequence (P34998 24-415): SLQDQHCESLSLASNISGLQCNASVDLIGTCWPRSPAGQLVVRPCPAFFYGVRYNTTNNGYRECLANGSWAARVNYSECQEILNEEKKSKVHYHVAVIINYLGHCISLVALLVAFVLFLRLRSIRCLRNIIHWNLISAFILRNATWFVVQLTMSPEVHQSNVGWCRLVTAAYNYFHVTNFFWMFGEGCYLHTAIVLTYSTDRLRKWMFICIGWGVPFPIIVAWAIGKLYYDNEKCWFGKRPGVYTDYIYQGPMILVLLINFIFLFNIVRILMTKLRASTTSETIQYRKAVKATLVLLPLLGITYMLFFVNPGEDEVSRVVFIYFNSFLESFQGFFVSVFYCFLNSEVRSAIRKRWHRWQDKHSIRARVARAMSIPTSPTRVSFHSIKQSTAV
Put plainly: Activity at anti-target CFR1R receptor, cAMP assay in CRF1R-overexpression CHO-K1 cells. The class given is cell-based. As to conditions: 100% = Sauvagine at 100 nM; for EC50: cAMP. In a few lines: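 Clone 2 cells were cultured in F12 (Hams)/10% FBS/400 μg/ml G418 at 37° C./5% CO2, frozen in medium with 10% DMSO, and thawed vials used. The protocol followed the TeloHAEC procedure, with 4000 cells/well final and Sauvagine at 100 nM defining 100% activation.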
A general note: Changes in cAMP serve as a functional read-out for many G protein-coupled receptors.

Structures are written as SMILES. *1 amine or outer side, *2 acyl side, *3 side chain or, on linkers, in order; H or OH if unused. Where a SMILES comes first, the peptide text is derived from it. Side-chain parts run from the residue outwards. [ ]: non-standard residue; d: D form. The star is where a group is joined. C18 diacid = O=C(O)CCCCCCCCCCCCCCCCC(=O)*; γGlu = O=C(O)[C@H](CCC(=O)[*:2])N[*:1]; NMeI = CC[C@H](C)[C@H](NC)C(=O)O; αMeL = CC(C)C[C@](C)(N)C(=O)O; Api = NC1(C(=O)O)CCNCC1; Dap = NC[C@H](N)C(=O)O; Pentanoyl = CCCCC(=O)*; AEEA = NCCOCCOCC(=O)O; Aib = CC(C)(N)C(=O)O Bounds are passed on as bounds.

For `CC[C@H](C)[C@H](NC)C(=O)N[C@H](C(=O)N[C@@H](CC(C)C)C(=O)N[C@@H](CO)C(=O)N[C@@H](CC(C)C)C(=O)N[C@@H](CC(=O)O)C(=O)N[C@@H](C(=O)N1CCC[C@H]1C(=O)N[C@H](C(=O)N[C@@H](CCCCN)C(=O)N[C@@H](CC(C)C)C(=O)N[C@@H](CCCCNC(=O)COCCOCCNC(=O)COCCOCCNC(=O)CC[C@H](NC(=O)CCCCCCCCCCCCCCCCC(=O)O)C(=O)O)C(=O)N[C@@H](CCCCN)C(=O)N[C@H](C(=O)N[C@@H](CC(C)C)C(=O)N[C@@H](CC(C)C)C(=O)N[C@@H](CCC(=O)O)C(=O)N[C@@H](CCC(N)=O)C(=O)N[C@@H](CCC(=O)O)C(=O)N[C@@H](CCCCN)C(=O)N[C@@H](CCC(N)=O)C(=O)N[C@@H](CCCCN)C(=O)N[C@@H](CCCCN)C(=O)N[C@@H](CCC(N)=O)C(=O)N[C@@H](CCCNC(=N)N)C(=O)N[C@@H](CCC(=O)O)C(=O)N[C@@H](CCC(N)=O)C(=O)N[C@@H](C)C(=O)N[C@@H](CCC(=O)O)C(=O)N[C@H](C(=O)N[C@@H](CC(N)=O)C(=O)N[C@@H](CN)C(=O)N[C@@H](CCC(N)=O)C(=O)N[C@H](C(=O)N[C@@H](CC(C)C)C(=O)N[C@@H](C)C(=O)N[C@@H](CCC(N)=O)C(=O)N[C@H](C(N)=O)C(C)C)[C@@H](C)CC)[C@@H](C)O)[C@@H](C)CC)[C@@H](C)CC)C(C)C)C(C)C` [compound 115] (H-[NMeI]VLSLD[dV]PIKLK([AEEA-AEEA-γGlu-C18 diacid])KILLEQEKQKKQREQAETN[Dap]QILAQV-NH2), the EC50 on human CRF2a receptor is 0.76 nM; on CFR1R receptor, above 250 nM. At CFR1R receptor, the “Emax (% I)” value is 4 % I.
`CC[C@H](C)[C@H](NC)C(=O)N[C@H](C(=O)N[C@@H](CC(C)C)C(=O)N[C@@H](CO)C(=O)N[C@@H](CC(C)C)C(=O)N[C@@H](CC(=O)O)C(=O)N[C@@H](C(=O)N1CCC[C@H]1C(=O)N[C@H](C(=O)N[C@@H](CCCCN)C(=O)N[C@@H](CC(C)C)C(=O)N[C@@H](CCCCNC(=O)COCCOCCNC(=O)COCCOCCNC(=O)CC[C@H](NC(=O)CCCCCCCCCCCCCCCCC(=O)O)C(=O)O)C(=O)N[C@@H](CCCCN)C(=O)N[C@H](C(=O)N[C@@H](CC(C)C)C(=O)N[C@@H](CC(C)C)C(=O)N[C@@H](CCC(=O)O)C(=O)N[C@@H](CCC(N)=O)C(=O)N[C@@H](CCC(=O)O)C(=O)N[C@@H](CCCCN)C(=O)N[C@@H](CCC(N)=O)C(=O)N[C@@H](CCCCN)C(=O)N[C@@H](CCCCN)C(=O)N[C@@H](CCC(N)=O)C(=O)N[C@@H](CCCNC(=N)N)C(=O)N[C@@H](CCC(=O)O)C(=O)N[C@@H](CCC(N)=O)C(=O)N[C@@H](C)C(=O)N[C@@H](CCC(=O)O)C(=O)N[C@H](C(=O)N[C@@H](CC(N)=O)C(=O)N[C@@H](CCC(=O)O)C(=O)N[C@@H](CCC(N)=O)C(=O)N[C@H](C(=O)N[C@@H](CC(C)C)C(=O)N[C@@H](C)C(=O)N[C@@H](CCC(N)=O)C(=O)N[C@H](C(N)=O)C(C)C)[C@@H](C)CC)[C@@H](C)O)[C@@H](C)CC)[C@@H](C)CC)C(C)C)C(C)C` [compound 116] (H-[NMeI]VLSLD[dV]PIKLK([AEEA-AEEA-γGlu-C18 diacid])KILLEQEKQKKQREQAETNEQILAQV-NH2) gave an EC50 on human CRF2a receptor of 0.37 nM. On CFR1R receptor, the “Emax (% I)” value came to 0 % I and the EC50 was above 250 nM.
For `CC[C@H](C)[C@H](NC)C(=O)N[C@H](C(=O)N[C@@H](CC(C)C)C(=O)N[C@@H](CO)C(=O)N[C@@H](CC(C)C)C(=O)N[C@@H](CC(=O)O)C(=O)N[C@@H](C(=O)N1CCC[C@H]1C(=O)N[C@H](C(=O)N[C@@H](CCCCN)C(=O)N[C@@H](CC(C)C)C(=O)N[C@@H](CCCCNC(=O)COCCOCCNC(=O)COCCOCCNC(=O)CC[C@H](NC(=O)CCCCCCCCCCCCCCCCC(=O)O)C(=O)O)C(=O)N[C@@H](CCCCN)C(=O)N[C@H](C(=O)N[C@@H](CC(C)C)C(=O)N[C@@H](CC(C)C)C(=O)N[C@@H](CCC(=O)O)C(=O)N[C@@H](CCC(N)=O)C(=O)N[C@@H](CCC(=O)O)C(=O)N[C@@H](CCCCN)C(=O)N[C@@H](CCC(N)=O)C(=O)N[C@@H](CCCCN)C(=O)N[C@@H](CCCCN)C(=O)N[C@@H](CCC(N)=O)C(=O)N[C@@H](CCCNC(=N)N)C(=O)N[C@@H](CCC(=O)O)C(=O)N[C@@H](CCC(N)=O)C(=O)N[C@@H](C)C(=O)N[C@@H](CCC(=O)O)C(=O)N[C@H](C(=O)N[C@@H](CC(N)=O)C(=O)NC1(C(=O)N[C@@H](CCC(N)=O)C(=O)N[C@H](C(=O)N[C@@H](CC(C)C)C(=O)N[C@@H](C)C(=O)N[C@@H](CCC(N)=O)C(=O)N[C@H](C(N)=O)C(C)C)[C@@H](C)CC)CCNCC1)[C@@H](C)O)[C@@H](C)CC)[C@@H](C)CC)C(C)C)C(C)C` [compound 117] (H-[NMeI]VLSLD[dV]PIKLK([AEEA-AEEA-γGlu-C18 diacid])KILLEQEKQKKQREQAETN[Api]QILAQV-NH2), in that order: 0.63 nM, 3 % I and above 250 nM.
For `CC[C@H](C)[C@H](NC)C(=O)N[C@H](C(=O)N[C@@H](CC(C)C)C(=O)N[C@@H](CO)C(=O)N[C@@H](CC(C)C)C(=O)N[C@@H](CC(=O)O)C(=O)N[C@@H](C(=O)N1CCC[C@H]1C(=O)N[C@H](C(=O)N[C@@H](CCCCN)C(=O)N[C@@](C)(CC(C)C)C(=O)N[C@@H](CCCCNC(=O)COCCOCCNC(=O)COCCOCCNC(=O)CC[C@H](NC(=O)CCCCCCCCCCCCCCCCC(=O)O)C(=O)O)C(=O)N[C@@H](CCCCN)C(=O)N[C@H](C(=O)N[C@@H](CC(C)C)C(=O)N[C@@H](CC(C)C)C(=O)N[C@@H](CCC(=O)O)C(=O)N[C@@H](CCC(N)=O)C(=O)N[C@@H](CCC(=O)O)C(=O)N[C@@H](CCCCN)C(=O)N[C@@H](CCC(N)=O)C(=O)N[C@@H](CCCCN)C(=O)N[C@@H](CCCCN)C(=O)N[C@@H](CCC(N)=O)C(=O)N[C@@H](CCCNC(=N)N)C(=O)N[C@@H](CCC(=O)O)C(=O)N[C@@H](CCC(N)=O)C(=O)N[C@@H](C)C(=O)N[C@@H](CCC(=O)O)C(=O)N[C@H](C(=O)N[C@@H](CC(N)=O)C(=O)NC(C)(C)C(=O)N[C@@H](CCC(N)=O)C(=O)N[C@H](C(=O)N[C@@H](CC(C)C)C(=O)N[C@@H](C)C(=O)N[C@@H](CCC(N)=O)C(=O)N[C@H](C(N)=O)C(C)C)[C@@H](C)CC)[C@@H](C)O)[C@@H](C)CC)[C@@H](C)CC)C(C)C)C(C)C` [compound 119] (H-[NMeI]VLSLD[dV]PIK[αMeL]K([AEEA-AEEA-γGlu-C18 diacid])KILLEQEKQKKQREQAETN[Aib]QILAQV-NH2), in that order: 1.62 nM, 5 % I and above 250 nM.
For `CCCCC(=O)N[C@H](C(=O)N[C@@H](CC(C)C)C(=O)N[C@@H](CO)C(=O)N[C@@H](CC(C)C)C(=O)N[C@@H](CC(=O)O)C(=O)N[C@@H](C(=O)N1CCC[C@H]1C(=O)N[C@H](C(=O)N[C@@H](CCCCN)C(=O)N[C@@H](CC(C)C)C(=O)N[C@@H](CCCCNC(=O)COCCOCCNC(=O)COCCOCCNC(=O)CC[C@H](NC(=O)CCCCCCCCCCCCCCCCC(=O)O)C(=O)O)C(=O)N[C@@H](CCCCN)C(=O)N[C@H](C(=O)N[C@@H](CC(C)C)C(=O)N[C@@H](CC(C)C)C(=O)N[C@@H](CCC(=O)O)C(=O)N[C@@H](CCC(N)=O)C(=O)N[C@@H](CCC(=O)O)C(=O)N[C@@H](CCCCN)C(=O)N[C@@H](CCC(N)=O)C(=O)N[C@@H](CCCCN)C(=O)N[C@@H](CCCCN)C(=O)N[C@@H](CCC(N)=O)C(=O)N[C@@H](CCCNC(=N)N)C(=O)N[C@@H](CCC(=O)O)C(=O)N[C@@H](CCC(N)=O)C(=O)N[C@@H](C)C(=O)N[C@@H](CCC(=O)O)C(=O)N[C@H](C(=O)N[C@@H](CC(N)=O)C(=O)NC(C)(C)C(=O)N[C@@H](CCC(N)=O)C(=O)N[C@H](C(=O)N[C@@H](CC(C)C)C(=O)N[C@@H](C)C(=O)N[C@@H](CCC(N)=O)C(=O)N[C@H](C(N)=O)C(C)C)[C@@H](C)CC)[C@@H](C)O)[C@@H](C)CC)[C@@H](C)CC)C(C)C)C(C)C` [compound 120] (Pentanoyl-VLSLD[dV]PIKLK([AEEA-AEEA-γGlu-C18 diacid])KILLEQEKQKKQREQAETN[Aib]QILAQV-NH2), in that order: 1.33 nM, 3 % I and above 250 nM.

Usually EC50 stands for the concentration at which the effect is half-maximal. Low readings indicate higher potency in that assay, high ones lower potency in that assay.

These data come from US20260001928A1 (CORTERIA PHARMACEUTICALS, priority 2022, published 2026).
